Consider 27 compounds from patent US9051333B2, “6,7-dihydroimidazo [2,1-b] [1,3]oxazine bactericides” (OTSUKA PHARMACEUTICAL CO., LTD., priority 2011, dated 2015).

Each structure is given as a SMILES string. In brackets after ≈: the same amount, converted by molar mass.

The first assay deals with Mycobacterium tuberculosis (M. tuberculosis kurono). Put plainly: Antimicrobial Assay (Agar Plate Dilution Method), M. tuberculosis kurono. The class given is cell-based. Conditions: 336 h, M. tuberculosis kurono, 7H11 agar medium, cultured at 37° C. for 14 days, read-out: Minimum Inhibitory Concentration.
As to `O=[N+]([O-])c1cn2c(n1)OC(COc1ccc(N3CCC(Oc4ccc(OC(F)(F)F)cc4)CC3)cc1)CC2` (stereo not drawn) [Example 1, 2-nitro-7-{4-[4-(4-trifluoromethoxyphenoxy)piperidin-1-yl]phenoxymethyl}-6,7-dihydro-5H-imidazo[2,1-b][1,3]oxazine], the MIC turned out to be 0.024 µg/mL (≈ 0.0449 µM).

For `O=[N+]([O-])c1cn2c(n1)OC(COc1ccc(N3CCN(Cc4ccc(OC(F)(F)F)cc4)CC3)cc1)CC2` (stereo not drawn) [Example 3, 2-nitro-7-{4-[4-(4-trifluoromethoxybenzyl)piperazin-1-yl]phenoxymethyl}-6,7-dihydro-5H-imidazo[2,1-b][1,3]oxazine], the MIC turned out to be 0.05 µg/mL (≈ 0.0937 µM).

Consider `O=[N+]([O-])c1cn2c(n1)OC(COc1ccc(-c3coc(COc4ccc(OC(F)(F)F)cc4)n3)cc1)CC2` (stereo not drawn) [Example 53, 2-nitro-7-{4-[2-(4-trifluoromethoxyphenoxymethyl)oxazol-4-yl]phenoxymethyl}-6,7-dihydro-5H-imidazo[2,1-b][1,3]oxazine], for which the MIC is 0.1 µg/mL (≈ 0.188 µM).

On to `O=[N+]([O-])c1cn2c(n1)OC(COc1ccc(-c3csc(-c4ccc(OC(F)(F)F)cc4)n3)cc1)CC2` (stereo not drawn) [Example 56, 2-nitro-7-{4-[2-(4-trifluoromethoxyphenyl)thiazol-4-yl]phenoxymethyl}-6,7-dihydro-5H-imidazo[2,1-b][1,3]oxazine], for which the MIC amounted to 0.012 µg/mL (≈ 0.0231 µM).

Take `O=[N+]([O-])c1cn2c(n1)OC(COc1ccc(N3CCN(CCCc4ccc(Oc5ccc(OC(F)(F)F)cc5)cc4)CC3)cc1)CC2` (stereo not drawn) [Example 64, 2-nitro-7-[4-(4-{3-[4-(4-trifluoromethoxyphenoxy)phenyl]propyl}piperazin-1-yl)phenoxymethyl]-6,7-dihydro-5H-imidazo[2,1-b][1,3]oxazine]: the MIC is no more than 0.006 µg/mL.

Turning to `O=[N+]([O-])c1cn2c(n1)OC(COc1ccc(N3CCC(CCOc4ccc(OC(F)(F)F)cc4)CC3)nc1)CC2` (stereo not drawn) [Example 79, 2-nitro-7-(6-{4-[2-(4-trifluoromethoxyphenoxy)ethyl]piperidin-1-yl}pyridin-3-yloxymethyl)-6,7-dihydro-5H-imidazo[2,1-b][1,3]oxazine], the MIC worked out at 0.012 µg/mL (≈ 0.0213 µM).

Turning to `CN(c1ccc(OC(F)(F)F)cc1)C1CCN(c2ccc(OC[C@H]3CCn4cc([N+](=O)[O-])nc4O3)cc2)CC1` [Example 90, N-methyl-N-{1-[4-((R)-2-nitro-6,7-dihydro-5H-imidazo[2,1-b][1,3]oxazin-7-ylmethoxy)phenyl]piperidin-4-yl}-N-(4-trifluoromethoxyphenyl)amine], the MIC was determined as 0.012 µg/mL (≈ 0.0219 µM).

In the case of `O=[N+]([O-])c1cn2c(n1)OC(COc1ccc3c(c1)CCCN3CCCOc1ccc(OC(F)(F)F)cc1)CC2` (stereo not drawn) [Example 143, 6-(2-nitro-6,7-dihydro-5H-imidazo[2,1-b][1,3]oxazin-7-ylmethoxy)-1-[3-(4-trifluoromethoxyphenoxy)propyl]-1,2,3,4-tetrahydroquinoline], the MIC came to 0.1 µg/mL (≈ 0.182 µM).

Consider `O=[N+]([O-])c1cn2c(n1)OC(COc1ccc(N3CCC(Oc4ccc(OC(F)(F)F)cc4)CC3)c(F)c1)CC2` (stereo not drawn) [Example 147, 7-{3-fluoro-4-[4-(4-trifluoromethoxyphenoxy)piperidin-1-yl]phenoxymethyl}-2-nitro-6,7-dihydro-5H-imidazo[2,1-b][1,3]oxazine], for which the MIC amounted to 0.05 µg/mL (≈ 0.0905 µM).

As to `O=[N+]([O-])c1cn2c(n1)O[C@@H](COc1ccc3nc(OCc4ccc(OC(F)(F)F)cc4)ccc3c1)CC2` [Example 153, 6-((R)-2-nitro-6,7-dihydro-5H-imidazo[2,1-b][1,3]oxazin-7-ylmethoxy)-2-(4-trifluoromethoxybenzyloxy)quinoline], the MIC was found to be 0.024 µg/mL (≈ 0.0465 µM).

Turning to `O=[N+]([O-])c1cn2c(n1)O[C@@H](COc1ccc(N3CCN(Cc4ccc(OCc5ccc(C(F)(F)F)cc5)cc4)CC3)cc1)CC2` [Example 182, (R)-2-nitro-7-(4-{4-[4-(4-trifluoromethylbenzyloxy)benzyl]piperazin-1-yl}phenoxymethyl)-6,7-dihydro-5H-imidazo[2,1-b][1,3]oxazine], the MIC is no more than 0.0015 µg/mL.

Regarding `O=[N+]([O-])c1cn2c(n1)O[C@@H](COc1ccc(N3CCN(c4ccc(OCc5ccc(OC(F)(F)F)cc5)cc4)CC3)cc1)CC2` [Example 198, (R)-2-nitro-7-(4-{4-[4-(4-trifluoromethoxybenzyloxy)phenyl]piperazin-1-yl}phenoxymethyl)-6,7-dihydro-5H-imidazo[2,1-b][1,3]oxazine], the MIC is no more than 0.0015 µg/mL.

As for `O=[N+]([O-])c1cn2c(n1)O[C@@H](COc1ccc(OC3CCN(Cc4ccc(OCc5ccc(OC(F)(F)F)cc5)cc4)CC3)cc1)CC2` [Example 206, (R)-2-nitro-7-(4-{1-[4-(4-trifluoromethoxybenzyloxy)benzyl]piperidin-4-yloxy}phenoxymethyl)-6,7-dihydro-5H-imidazo[2,1-b][1,3]oxazine], the MIC is no more than 0.0015 µg/mL.

With `O=[N+]([O-])c1cn2c(n1)O[C@H](COc1ccc(N3CCC(Cc4ccc(OCc5ccc(C(F)(F)F)cc5)cc4)CC3)cc1)CC2` [Example 254, (S)-2-nitro-7-(4-{4-[4-(4-trifluoromethylbenzyloxy)benzyl]piperidin-1-yl}phenoxymethyl)-6,7-dihydro-5H-imidazo[2,1-b][1,3]oxazine], the MIC was 0.0008 µg/mL (≈ 0.00128 µM).

In the case of `O=[N+]([O-])c1cn2c(n1)O[C@H](COc1ccc(-c3ccc(CN4CCC(Oc5ccc(OC(F)(F)F)cc5)CC4)cc3)cc1)CC2` [Example 282, (S)-2-nitro-7-{4′-[4-(4-trifluoromethoxyphenoxy)piperidin-1-ylmethyl]biphenyl-4-yloxymethyl}-6,7-dihydro-5H-imidazo[2,1-b][1,3]oxazine], the MIC turned out to be 0.006 µg/mL (≈ 0.00961 µM).

As to `O=[N+]([O-])c1cn2c(n1)O[C@H](COc1ccc(N3CCN(Cc4ccc(NCc5ccc(C(F)(F)F)cc5)cc4)CC3)cc1)CC2` [Example 290, N-(4-{4-[4-((S)-2-nitro-6,7-dihydro-5H-imidazo[2,1-b][1,3]oxazin-7-ylmethoxy)phenyl]piperazin-1-ylmethyl}phenyl)-N-(4-trifluoromethylbenzyl)amine], the MIC worked out at 0.0008 µg/mL (≈ 0.00128 µM).

As for `C[C@@H]1CN(c2ccc(OC[C@H]3CCn4cc([N+](=O)[O-])nc4O3)cc2)CCN1Cc1ccc(OCc2ccc(C(F)(F)F)cc2)cc1` [Example 299, (R)-7-(4-{(R)-3-methyl-4-[4-(4-trifluoromethylbenzyloxy)benzyl]piperazin-1-yl}phenoxymethyl)-2-nitro-6,7-dihydro-5H-imidazo[2,1-b][1,3]oxazine], the MIC was 0.0008 µg/mL (≈ 0.00125 µM).

With `O=[N+]([O-])c1cn2c(n1)O[C@@H](COc1ccc3c(c1)CCN(Cc1ccc(OCc4ccc(C(F)(F)F)cc4)cc1)C3)CC2` [Example 304, 6-((R)-2-nitro-6,7-dihydro-5H-imidazo[2,1-b][1,3]oxazin-7-ylmethoxy)-2-[4-(4-trifluoromethylbenzyloxy)benzyl]-1,2,3,4-tetrahydroisoquinoline], the MIC was found to be 0.012 µg/mL (≈ 0.0202 µM).

Take `C[C@@H]1CN(Cc2ccc(Oc3ccc(OC(F)(F)F)cc3)cc2)CCN1c1ccc(OC[C@H]2CCn3cc([N+](=O)[O-])nc3O2)cc1` [Example 335, (R)-7-(4-{(R)-2-methyl-4-[4-(4-trifluoromethoxyphenoxy)benzyl]piperazin-1-yl}phenoxymethyl)-2-nitro-6,7-dihydro-5H-imidazo[2,1-b][1,3]oxazine]: the MIC was 0.0015 µg/mL (≈ 0.00235 µM).

On to `O=[N+]([O-])c1cn2c(n1)OC(COc1ccc(C3CCN(Cc4ccc(OC(F)(F)F)cc4)CC3)cc1)CC2` (stereo not drawn) [Example 364, 2-nitro-7-{4-[1-(4-trifluoromethoxybenzyl)piperidin-4-yl]phenoxymethyl}-6,7-dihydro-5H-imidazo[2,1-b][1,3]oxazine], for which the MIC was 0.024 µg/mL (≈ 0.0451 µM).

Turning to `O=[N+]([O-])c1cn2c(n1)O[C@@H](COc1ccc(N3CCN(C/C=C/c4ccc(C(F)(F)F)cc4)CC3)cc1)CC2` [Example 372, (R)-2-nitro-7-(4-{4-[(E)-3-(4-trifluoromethylphenyl)allyl]piperazin-1-yl}phenoxymethyl)-6,7-dihydro-5H-imidazo[2,1-b][1,3]oxazine], the MIC was 0.006 µg/mL (≈ 0.011 µM).

Turning to `O=[N+]([O-])c1cn2c(n1)O[C@@H](COc1ccc(-c3ccc(N4CCC(O)(C(F)(F)F)CC4)cc3)cc1)CC2` [Example 379, 1-[4′-((R)-2-nitro-6,7-dihydro-5H-imidazo[2,1-b][1,3]oxazin-7-ylmethoxy)biphenyl-4-yl]-4-trifluoromethylpiperidin-4-ol], the MIC is 0.1 µg/mL (≈ 0.193 µM).

Consider `CC1(COc2ccc(N3CCC(CCc4ccc(OC(F)(F)F)cc4)CC3)cc2)CCn2cc([N+](=O)[O-])nc2O1` (stereo not drawn) [Example 382, 7-methyl-2-nitro-7-(4-{4-[2-(4-trifluoromethoxyphenyl)ethyl]piperidin-1-yl}phenoxymethyl)-6,7-dihydro-5H-imidazo[2,1-b][1,3]oxazine], for which the MIC came to 0.012 µg/mL (≈ 0.0214 µM).

Regarding `O=[N+]([O-])c1cn2c(n1)O[C@@H](COc1ccc(N3CCC(Cc4ccc(OC(F)(F)F)cc4)CC3)cc1)CC2` [Example 383, (R)-2-nitro-7-{4-[4-(4-trifluoromethoxybenzyl)piperidin-1-yl]phenoxymethyl}-6,7-dihydro-5H-imidazo[2,1-b][1,3]oxazine], the MIC is 0.003 µg/mL (≈ 0.00563 µM).

Take `O=[N+]([O-])c1cn2c(n1)O[C@@H](COc1ccc(N3CCC(CCCOc4cccc(C(F)(F)F)c4)CC3)cc1)CC2` [Example 395, (R)-2-nitro-7-(4-{4-[3-(3-trifluoromethylphenoxy)propyl]piperidin-1-yl}phenoxymethyl)-6,7-dihydro-5H-imidazo[2,1-b][1,3]oxazine]: the MIC was 0.003 µg/mL (≈ 0.00535 µM).

With `O=[N+]([O-])c1cn2c(n1)O[C@@H](COc1ccc(N3CCC(CCCc4ccc(C(F)(F)F)cc4)CC3)cc1)CC2` [Example 400, (R)-2-nitro-7-(4-{4-[3-(4-trifluoromethylphenyl)propyl]piperidin-1-yl}phenoxymethyl)-6,7-dihydro-5H-imidazo[2,1-b][1,3]oxazine], the MIC was no more than 0.0004 µg/mL.

The assay is the same for the next values; noted with them: 336 h, read-out: Minimum Inhibitory Concentration.
Regarding `O=[N+]([O-])c1cn2c(n1)O[C@@H](COc1ccc(N3CCN(S(=O)(=O)C(F)(F)C(F)(F)C(F)(F)C(F)(F)F)CC3)cc1)CC2` [Example 380, (R)-2-nitro-7-{4-[4-(nonafluorobutane-1-sulfonyl)piperazin-1-yl]phenoxymethyl}-6,7-dihydro-5H-imidazo[2,1-b][1,3]oxazine], the MIC is 0.012 µg/mL (≈ 0.0187 µM).
